We go through three substances from patent publication US5516887A, “Luteinizing hormone releasing hormone antagonist peptides” (Deghenghi; Romano, priority 1994, dated 1996).

Non-standard residues stand in square brackets, D forms with d. *: point of attachment. dPhe(4-Cl) = N[C@H](Cc1ccc(Cl)cc1)C(=O)O; d2Nal = N[C@H](Cc1ccc2ccccc2c1)C(=O)O; d3Pal = N[C@H](Cc1cccnc1)C(=O)O; Carbamoyl = NC(=O)*; iPr = CC(C)*

The format of data set [1] is physicochemical. An excerpt:
An aqueous solution of the peptide of Example 1 was mixed with an aqueous solution of sodium pamoate.

Data set [2] deals with rats. Briefly: Test for anaphylactoid properties in rats. Conditions: six rats, injected with 5 mg/kg, observed over a 24 hour period. The format is in vivo. On the procedure:
Six rats were utilized to test the LHRH antagonist peptide of Example 1 of the present invention for anaphylactoid properties. Each of the six rats was injected with 5 mg/kg of the test peptide.

For data set [3], the system named is plasma testosterone. Briefly: Suppression of plasma testosterone in rats after i.m. injection. It counts as in vivo. As to conditions: 300 μg/kg i.m. An excerpt:
The effect of an LHRH antagonist peptide of Example 1 of the present invention was compared to the effect of "Antide", cf. A. Ljungqvist et al., Biochem. Biophys. Res. Comm., 148, 849-858 (1987)., an LHRH antagonist of the prior art. Both LHRH antagonists were intermuscularly injected into 6 rats at a dosage of 300 mcg/kg.

For “Example 1: LHRH antagonist peptide SEQ ID NO.: 1: N-acetyl-D-3-(2-naphthyl)-Ala1, D-3-(4-chlorophenyl)-alanine2, D-3(3-pyridyl)-Ala3, D-6-carbamoyl lysine6, Nε-isopropyl-Lys8, D-Ala-NH2 at 10 (Ac-[d2Nal][dPhe(4-Cl)][d3Pal]SY[dK](Carbamoyl)LK(iPr)P[dA]-NH2)”, the solubility in water result in data set [1] is given as “freely soluble in water”. The “mortality or other signs of anaphylactoid reactions” value in data set [2] is on record as “No mortality or other signs of anaphylactoid reactions were observed”. The “plasma testosterone, 0 hr” value in data set [3] was 5.46 ± 3.32. In data set [3] (24 hr), the “effectiveness relative to Antide at 24 hour suppression of plasma testosterone” value was “more than about ten times as effective as Antide” and the “plasma testosterone, 24 hr” value is on record as 0.067 ± 0.030. In addition, in data set [3] (48 hr), the “effectiveness relative to Antide at 48 hours, suppression of plasma testosterone” value was “more than twice as effective as Antide” and the “plasma testosterone, 48 hr” value stood at 0.84 ± 0.28.
Turning to Antide [reference compound], in data set [3], the “plasma testosterone, 0 hr” value was 3.35 ± 2.51. Also, the “plasma testosterone, 24 hr” value in data set [3] (24 hr) is 0.78 ± 0.37. For the same substance, in data set [3] (48 hr), the “plasma testosterone, 48 hr” value came out at 1.96 ± 0.95.
As for “Example 2: LHRH antagonist peptide SEQ ID NO.: 2: as SEQ ID NO.: 1 at positions 1, 2, 3, 6, 8; position 9 is Pro-NHCH2 CH3 (Ac-[d2Nal][dPhe(4-Cl)][d3Pal]SY[dK](Carbamoyl)LK(iPr)P-NHEt; SMILES CCNC(=O)[C@@H]1CCCN1C(=O)[C@H](CCCCNC(C)C)NC(=O)[C@H](CC(C)C)NC(=O)[C@@H](CCCCNC(N)=O)NC(=O)[C@H](Cc1ccc(O)cc1)NC(=O)[C@H](CO)NC(=O)[C@@H](Cc1cccnc1)NC(=O)[C@@H](Cc1ccc(Cl)cc1)NC(=O)[C@@H](Cc1ccc2ccccc2c1)NC(C)=O)”, the solubility in water entry in data set [1] is reported as “water soluble”.
